Measured values taken from US20140163044A1, “Compound Chemical Medicine Acting on Respiratory Disease, Preparation Process and Use Thereof” (HUNAN JIUDIAN PHARMACEUTICAL CO., LTD., priority 2011, published 2014).

Experiments:
[1] = system: outpatients or inpatients with cough; assay: Trials for observing the clinical effect of the tablet in patients with cough; type: in vivo; conditions: 100 cases per group, oral, one tablet 3 times a day, 5-day course; for Efficacy: Ineffective: cough not improved or aggravated; for Efficacy: Improved: cough reduced 3 to 2 points or 2 to 1 points; for Efficacy: Effective: cough reduced to 1 point from 3 points; for Efficacy: Clinically controlled: symptoms disappeared completely
Method: Trials for observing the clinical effect of the tablet of the present invention was conducted in the People's Hospital of Yongshun County, Hunan Province.
300 outpatients or inpatients with cough caused by acute upper respiratory tract infection, acute tracheitis and bronchitis, community-acquired pneumonia, and acute exacerbation of chronic bronchitis were randomly divided into a treatment group […], 100 patients for each group. Medicines were administered following the double-blind double-dummy positive medicine parallel control method. The tablets of the present invention, the control medicine levodropropizine tablets or carbocisteine tablets were taken by each group, respectively. Each group orally takes the tablets 3 times a day, one tablet (including analog tablet) each time, for a 5-day course of treatment. Other antitussive or expectorant medicine was stopped during the administration. The patients' conventional indicators such as blood pressure, pulse rate, body temperature, respiration, etc.; symptoms of cough; chest x-ray; blood and urine routine tests; liver and kidney functions; adverse reaction records and electrocardiogram were recorded.
Criteria for evaluating the efficacy are as follows: clinically controlled: symptoms disappeared completely; effective: symptoms of cough reduced to 1 point from 3 points; improved: symptoms of cough reduced to 2 points from 3 points or reduced to 1 points from 2 points; ineffective: symptoms of cough were not improved or aggravated.

guinea pigs = assay: Antitussive effect in guinea pigs (induced cough 1 h or 4 h after oral administration); type: in vivo; conditions: for Effect on latent period of cough and cough times (in words): all dose groups; for Cough times before administration (in 5 min) / Latent period of cough / cough count: oral; for Cough times before administration (in 5 min): baseline before administration
Description: The pharmacodynamic test for the pharmaceutical composition of the present invention: • 1. Studies on the Antitussive Effect
Medicines used in the test:
Test medicine: self-made tablets of the pharmaceutical composition comprising levodropropizine and carbocisteine by the inventors
Positive control medicine: levodropropizine tablets and carbocisteine tablets
150 guinea pigs (half male and half female) with a body mass of 300±25 g are taken and evenly divided into 15 groups, with 10 in each group. The administration group for the tablet of the present invention is divided into high dose group, medium dose group and low dose group, and the tablets are orally administered respectively; the administration groups for the positive control medicine levodropropizine is also divided into high dose group, medium dose group and low dose group. Each dose group is divided into two groups, respectively the group inducing cough at the first hour or the fourth hour after administration.

[2] = 60 mg/kg, four hours after administration
[3] = 60 mg/kg, one hour after administration
[4] = 30 mg/kg, four hours after administration
[5] = 30 mg/kg, one hour after administration
[6] = 120 mg/kg, four hours after administration
[7] = 120 mg/kg, one hour after administration

SMILES | Effective rate [1] [%] | Efficacy: Ineffective [1] [cases] | Efficacy: Improved [1] [cases] | Efficacy: Effective [1] [cases] | Efficacy: Clinically controlled [1] [cases] | Effect on latent period of cough and cough times (in words) (guinea pigs) | Cough times before administration (in 5 min) (guinea pigs; 60 mg/kg group, 1 h group) | Cough times before administration (in 5 min) (guinea pigs; 60 mg/kg group, 4 h group) | Latent period of cough (guinea pigs; [2]) [s] | cough count (guinea pigs; [2]) | Latent period of cough (guinea pigs; [3]) [s] | cough count (guinea pigs; [3]) | also measured
N[C@@H](CSCC(=O)O)C(=O)O [Carbocisteine tablet, carbocisteine] | 86 | 14 | 40 | 18 | 28 | no obviously effect on prolonging the latent period of cough and reducing the cough times | 25.24 ± 4.53 | 26.04 ± 4.37 | 32.56 ± 5.17 | 20 ± 4.24 | 31.28 ± 6.42 | 21.1 ± 3.98 | 
OC[C@@H](O)CN1CCN(c2ccccc2)CC1 [Levodropropizine tablet, levodropropizine] | 92 | 8 | 17 | 15 | 60 | effects of prolonging latent period of cough and reducing cough times | 25.41 ± 5.26 | 25.89 ± 4.06 | 40.27 ± 5.29 | 17.2 ± 3.45 | 42.38 ± 5.98 | 17.6 ± 3.97 | Cough times before administration (in 5 min) (guinea pigs; 30 mg/kg group, 1 h group): 25.14 ± 4.37 in 5 min; Cough times before administration (in 5 min) (guinea pigs; 30 mg/kg group, 4 h group): 25.74 ± 3.71 in 5 min; Latent period of cough (guinea pigs; [4]): 36.34 ± 4.68 s; cough count (guinea pigs; [4]): 19.4 ± 5.03; Latent period of cough (guinea pigs; [5]): 38.16 ± 5.88 s; cough count (guinea pigs; [5]): 19.1 ± 4.15; Cough times before administration (in 5 min) (guinea pigs; 120 mg/kg group, 1 h group): 25.18 ± 5.31 in 5 min; Cough times before administration (in 5 min) (guinea pigs; 120 mg/kg group, 4 h group): 26.27 ± 3.98 in 5 min; Latent period of cough (guinea pigs; [6]): 42.18 ± 3.18 s; cough count (guinea pigs; [6]): 15.1 ± 3.97; Latent period of cough (guinea pigs; [7]): 49.57 ± 6.87 s; cough count (guinea pigs; [7]): 14.2 ± 4.25
